≈ marks a conversion by molar mass, not a printed value. Blank lines part the entries; values can stand above or below the compound they belong to.
Tests used:
[1] = Aqueous kinetic solubility of the compound at pH 7.4; assay type: physicochemical; conditions: for Kinetic_solubility: buffer; for solubility kinetic: aqueous, read-out: Kinetic_solubility
[2] = Aqueous equilibrium solubility in citric acid/disodium phosphate buffer at pH 6.8 at 1 uM after 24 hrs by HPLC method; assay type: physicochemical; conditions: for solubility thermodynamic at 24 h, 1 µM: citric acid/disodium phosphate buffer, pH 6.8
hERG (KCNH2) [3] = biological target: T1, hERG (KCNH2) (Homo sapiens, UniProt Q12809); test: Inhibition of human ERG expressed in CHO cells at 42 uM at -70mV holding potential measured after 300 secs by IonWorks electrophysiology method relative to control; assay type: cell-based; conditions: CHO cells expressing human ERG
T1 sequence (Q12809 whole entry): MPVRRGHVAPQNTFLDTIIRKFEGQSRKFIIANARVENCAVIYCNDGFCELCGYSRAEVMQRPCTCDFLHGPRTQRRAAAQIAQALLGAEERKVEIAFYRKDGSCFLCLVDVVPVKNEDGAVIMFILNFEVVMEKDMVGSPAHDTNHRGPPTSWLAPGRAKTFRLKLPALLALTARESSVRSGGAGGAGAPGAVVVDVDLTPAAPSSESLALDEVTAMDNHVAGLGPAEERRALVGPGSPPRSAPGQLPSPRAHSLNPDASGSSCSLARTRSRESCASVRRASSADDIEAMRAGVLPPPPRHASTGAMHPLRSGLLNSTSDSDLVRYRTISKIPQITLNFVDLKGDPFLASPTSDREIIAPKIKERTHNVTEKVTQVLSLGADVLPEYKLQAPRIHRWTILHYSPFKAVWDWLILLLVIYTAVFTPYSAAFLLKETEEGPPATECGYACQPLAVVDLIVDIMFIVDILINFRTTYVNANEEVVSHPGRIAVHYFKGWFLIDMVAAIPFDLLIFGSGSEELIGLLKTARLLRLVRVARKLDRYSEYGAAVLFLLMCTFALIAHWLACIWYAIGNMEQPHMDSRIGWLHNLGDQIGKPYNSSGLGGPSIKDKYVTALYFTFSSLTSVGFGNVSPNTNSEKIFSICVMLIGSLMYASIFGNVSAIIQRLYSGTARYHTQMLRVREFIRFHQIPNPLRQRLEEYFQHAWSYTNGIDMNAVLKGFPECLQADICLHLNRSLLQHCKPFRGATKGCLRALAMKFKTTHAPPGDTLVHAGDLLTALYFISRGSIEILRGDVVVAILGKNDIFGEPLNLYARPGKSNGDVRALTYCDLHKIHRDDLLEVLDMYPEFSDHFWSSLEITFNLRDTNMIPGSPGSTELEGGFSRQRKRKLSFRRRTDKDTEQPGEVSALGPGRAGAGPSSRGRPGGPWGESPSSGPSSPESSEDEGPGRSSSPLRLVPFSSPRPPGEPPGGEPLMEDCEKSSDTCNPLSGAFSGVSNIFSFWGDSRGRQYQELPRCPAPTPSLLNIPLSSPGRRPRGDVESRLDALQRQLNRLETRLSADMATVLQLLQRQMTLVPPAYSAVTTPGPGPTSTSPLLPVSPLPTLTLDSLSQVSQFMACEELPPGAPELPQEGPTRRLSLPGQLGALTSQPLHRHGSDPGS

[4] = biological target: T2, Arachidonate 5-lipoxygenase-activating protein (Homo sapiens, UniProt P20292); test: Displacement of [125I]-L-691831 from human FLAP expressed in Sf9 cell membranes after 2 hrs by Topcount method
T2 sequence (P20292 whole entry): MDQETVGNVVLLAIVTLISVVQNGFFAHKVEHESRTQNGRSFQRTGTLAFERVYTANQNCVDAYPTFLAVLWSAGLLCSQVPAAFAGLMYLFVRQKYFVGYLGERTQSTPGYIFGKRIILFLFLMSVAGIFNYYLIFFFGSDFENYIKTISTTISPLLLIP

[5] = biological target: T2, Arachidonate 5-lipoxygenase-activating protein; test: Inhibition of FLAP in calcimycin-stimulated human whole blood assessed as reduction in LTB4 production pretreated for 15 mins followed by calcimycin addition after 30 mins by ELISA
[6] = Stability in human liver microsomes at 1 uM pretreated for 10 mins followed by NADPH addition after 60 mins by LC/MS analysis relative to hepatic blood flow; assay type: ADME, microsome; conditions: read-out: Stability
hERG (KCNH2) [7] = biological target: T1, hERG (KCNH2); test: Inhibition of human ERG expressed in CHO cells at 10 uM at -70mV holding potential measured after 300 secs by IonWorks electrophysiology method relative to control; assay type: cell-based; conditions: CHO cells expressing human ERG
[8] = Clearance in human hepatocytes at 1 uM measured after 1 hr by LC/MS analysis relative to hepatic blood flow; assay type: ADME, cell-based, Hepatocyte
hERG (KCNH2) [9] = biological target: T1, hERG (KCNH2); test: Inhibition of human ERG expressed in CHO cells at 41 uM at -70mV holding potential measured after 300 secs by IonWorks electrophysiology method relative to control; assay type: cell-based; conditions: CHO cells expressing human ERG
hERG (KCNH2) [10] = biological target: T1, hERG (KCNH2); test: Inhibition of human ERG expressed in CHO cells at 21 uM at -70mV holding potential measured after 300 secs by IonWorks electrophysiology method relative to control; assay type: cell-based; conditions: CHO cells expressing human ERG
hERG (KCNH2) [11] = biological target: T1, hERG (KCNH2); test: Inhibition of human ERG expressed in CHO cells at 13 uM at -70mV holding potential measured after 300 secs by IonWorks electrophysiology method relative to control; assay type: cell-based; conditions: CHO cells expressing human ERG
hERG (KCNH2) [12] = biological target: T1, hERG (KCNH2); test: Inhibition of human ERG expressed in CHO cells at 34 uM at -70mV holding potential measured after 300 secs by IonWorks electrophysiology method relative to control; assay type: cell-based; conditions: CHO cells expressing human ERG
hERG (KCNH2) [13] = biological target: T1, hERG (KCNH2); test: Inhibition of human ERG expressed in HEK293 cells at 34 uM by whole-cell patch clamp method relative to control; assay type: cell-based; conditions: HEK293 cells expressing human ERG
Rattus norvegicus [14] = test: Clearance in Wistar rat at 1 mg/kg, iv by HPLC-MS/MS analysis relative to hepatic blood flow; assay type: ADME, organism-based; conditions: in vivo
[15] = Volume of distribution at steady state in Wistar rat at 1 mg/kg, iv by HPLC-MS/MS analysis; assay type: ADME, organism-based; conditions: in vivo, read-out: Vdss
[16] = Mean residence time in Wistar rat at 1 mg/kg, iv by HPLC-MS/MS analysis; assay type: ADME, organism-based; conditions: in vivo
[17] = Oral bioavailability in Wistar rat at 3 mg/kg by HPLC-MS/MS analysis; assay type: ADME, organism-based; conditions: in vivo
hERG (KCNH2) [18] = biological target: T1, hERG (KCNH2); test: Inhibition of human ERG expressed in CHO cells at 9 uM at -70mV holding potential measured after 300 secs by IonWorks electrophysiology method relative to control; assay type: cell-based; conditions: CHO cells expressing human ERG
hERG (KCNH2) [19] = biological target: T1, hERG (KCNH2); test: Inhibition of human ERG expressed in HEK293 cells at 30 uM by whole-cell patch clamp method relative to control; assay type: cell-based; conditions: HEK293 cells expressing human ERG
Rattus norvegicus [20] = test: Clearance in Sprague-Dawley rat at 1 mg/kg, iv by HPLC-MS/MS analysis relative to hepatic blood flow; assay type: ADME, organism-based; conditions: in vivo
[21] = Volume of distribution at steady state in Sprague-Dawley rat at 1 mg/kg, iv by HPLC-MS/MS analysis; assay type: ADME, organism-based; conditions: in vivo, read-out: Vdss
[22] = Mean residence time in Sprague-Dawley rat at 1 mg/kg, iv by HPLC-MS/MS analysis; assay type: ADME, organism-based; conditions: in vivo
[23] = Oral bioavailability in Sprague-Dawley rat at 3 mg/kg by HPLC-MS/MS analysis; assay type: ADME, organism-based; conditions: in vivo
hERG (KCNH2) [24] = biological target: T1, hERG (KCNH2); test: Inhibition of human ERG expressed in HEK293 cells at 37 uM by whole-cell patch clamp method relative to control; assay type: cell-based; conditions: HEK293 cells expressing human ERG
hERG (KCNH2) [25] = biological target: T1, hERG (KCNH2); test: Inhibition of human ERG expressed in CHO cells at 16 uM at -70mV holding potential measured after 300 secs by IonWorks electrophysiology method relative to control; assay type: cell-based; conditions: CHO cells expressing human ERG

Structure (SMILES): CC(C)(O)Cn1cc(-c2nc([C@@](C)(c3ccc(-c4cnc(N)nc4)nc3)C3CC3)no2)cn1
Kinetic_solubility [1]: Soluble
solubility thermodynamic at 24 h, 1 µM [2]: 26 µg/mL (≈ 58.2 µM)
inhibition at 5 min, 42 µM (hERG (KCNH2) [3]): 34%

Structure (SMILES): C[C@@](c1ccc(-c2cnc(N)nc2)nc1)(c1noc(N2CCC(O)CC2)n1)C1CC1
IC50 [4]: 434 nM
IC50 [5]: 324 nM
inhibition at 5 min, 41 µM (hERG (KCNH2) [9]): 17%

Structure (SMILES): Nc1ncc(-c2ccc(C3(c4noc(N5CCC(CO)CC5)n4)CCC3)cc2)cn1
IC50 [4]: 46 nM
IC50 [5]: 173 nM
solubility kinetic [1]: 14 µg/mL (≈ 34.4 µM)
hepatic extraction ratio at 1 h, 1 µM [6]: 0.36
inhibition at 5 min, 13 µM (hERG (KCNH2) [11]): 68%

Structure (SMILES): C[C@@](c1ccc(-c2cnc(N)nc2)cc1)(c1noc(N2CCC(O)CC2)n1)C1CC1
inhibition at 5 min, 34 µM (hERG (KCNH2) [12]): 30%
solubility thermodynamic at 24 h, 1 µM [2]: 111 µg/mL (≈ 273 µM)
inhibition at 34 µM (hERG (KCNH2) [13]): 30%
CL (Rattus norvegicus [14]): 33%
Vd [15]: 1.6 L/kg
MRT [16]: 1.6 h
bioavailability [17]: 75%

Structure (SMILES): CN(c1cnn(C)c1)c1nc([C@@](C)(c2ccc(-c3cnc(N)nc3)cc2)C2CC2)no1
IC50 [4]: 29 nM
IC50 [5]: 92 nM
Kinetic_solubility [1]: Soluble
hepatic extraction ratio at 1 h, 1 µM [6]: 0.34
inhibition at 5 min, 9 µM (hERG (KCNH2) [18]): 45%
solubility ([2]; buffer, pH 6.8, 24 h, 1 µM): Soluble

More lines, main results first:

IC50 [4]: 3 nM
IC50 [5]: 26 nM
hepatic extraction ratio at 1 h, 1 µM [6]: < 0.3
hepatic extraction ratio at 1 h, 1 µM [8]: 0.59
Structure (SMILES): Cn1cc(-c2nc([C@@](C)(c3ccc(-c4cnc(N)nc4)nc3)C3CC3)no2)cn1
inhibition at 5 min, 10 µM (hERG (KCNH2) [7]): 13%

IC50 [4]: 5.6 nM
IC50 [5]: 13 nM
hepatic extraction ratio at 1 h, 1 µM [6]: 0.58
Structure (SMILES): CC1(O)CCN(c2nc([C@@](C)(c3ccc(-c4cnc(N)nc4)cc3)C3CC3)no2)CC1
inhibition at 5 min, 21 µM (hERG (KCNH2) [10]): 31%

IC50 [4]: 13 nM
IC50 [5]: 41 nM
Kinetic_solubility [1]: Soluble
hepatic extraction ratio at 1 h, 1 µM [6]: < 0.3
solubility thermodynamic at 24 h, 1 µM [2]: 210 µg/mL (≈ 468 µM)
CL (Rattus norvegicus [20]): 10%
Vd [21]: 2 L/kg
MRT [22]: 4.6 h
bioavailability [23]: 114%
hepatic extraction ratio at 1 h, 1 µM [8]: 0.3
Structure (SMILES): CC(C)[C@](C)(c1ccc(-c2cnc(N)nc2)nc1)c1noc(-c2cnn(CC(C)(C)O)c2)n1
inhibition at 30 µM (hERG (KCNH2) [19]): 21%

IC50 [4]: 23 nM
IC50 [5]: 40 nM
hepatic extraction ratio at 1 h, 1 µM [6]: < 0.24
hepatic extraction ratio at 1 h, 1 µM [8]: 0.31
Structure (SMILES): CC(C)[C@](C)(c1ccc(-c2cnc(N)nc2)nc1)c1noc(-c2cnn(CC#N)c2)n1
inhibition at 37 µM (hERG (KCNH2) [24]): 38%

IC50 [4]: 17 nM
IC50 [5]: 87 nM
solubility kinetic [1]: > 40 µg/mL
hepatic extraction ratio at 1 h, 1 µM [6]: 0.29
Structure (SMILES): CC1(O)CCN(c2nc(C3(c4ccc(-c5cnc(N)nc5)cc4)CCC3)no2)CC1
inhibition at 5 min, 16 µM (hERG (KCNH2) [25]): 45%

From ChEMBL document CHEMBL4043239, “Discovery and optimization of oxadiazole-based FLAP inhibitors” (Bioorg Med Chem Lett, 2017)
